Measurements taken from patent US12534700B2, “Beneficial microbes for delivery of effector peptides or proteins and use thereof” (priority 2016, dated 2026).

Legend:
tobacco leaves [1] = conditions: peptides described in prior applications; cited from earlier work
tobacco leaves [2] = test: Hypersensitive response test of purified Fresno-p5-21 infused into tobacco leaves; format: in vivo; conditions: after 2 days
Experimental: The production and purification procedure of Examples 4 and 5 were scaled up to 1 L to produce a quantity of protein appropriate for hypersensitive response elicitation in tobacco leaves.
Briefly, 1 L of LB culture media was supplemented with 10 ug/ml Kanamycin and cells were grown as in Example 3 for 2 days in a baffled flask. Cells were harvested at 6000 g for 20 minutes at 4° C. Culture supernatant was removed from the cells and the cells were resuspended in 20 ml of Bugbuster Protein Extraction Reagent supplemented with 50 ug/ml lysozyme. The sample was gently rocked at room temperature for 30 minutes and then frozen on liquid nitrogen and stored at −80° C.
The sample was thawed on ice and a 1/50 volume of 500 mM imidazole was added for a final concentration of 10 mM imidazole. 8 ml of the sample was mixed with 2 ml of settled Ni-NTA agarose resin (5-Prime) end-over-end for 2 hours at 4° C. The column was then settled for 20 minutes and allowed to flow by gravity. The flowthrough was collected. The resin was washed with 5 column volumes of 50 mM sodium phosphate, 15 mM imidazole, 200 mM NaCl. Finally, the protein was eluted with 250 mM imidazole, pH 7.5. […] The protein concentration was quantified by UV/Vis spectroscopy using a Nanodrop 2000 (Thermo Fisher Scientific, Waltham, MA, USA). […]

[3] = Confirmation of soluble protein in bacterial cell lysates; format: physicochemical; conditions: B. subtilis lysate, Bugbuster plus lysozyme, 20,000 g for 10 minutes at 4° C.
Experimental: Fluorescent colonies from Example 3 were inoculated into 5 ml cultures of LB medium supplemented with 10 ug/ml Kanamycin and grown for 2 days with 170 rpm shaking at 37° C. Cells were harvested by centrifugation (5000 g for 15 minutes at 4° C.). The culture was decanted away from the cell pellet. The cell pellets were resuspended in 1 ml each of Bugbuster Protein Extraction Reagent (EMD Millipore, Billerica, MA, USA) supplemented with 200 ug/ml of lysozyme. Lysis was allowed to proceed for 20 minutes at room temperature (20° C.). The lysates were centrifuged at 20,000 g for 10 minutes at 4° C. to separate soluble from insoluble proteins.

## SAGSEQQLDLLLMFIMMMLQQ [P5]
Tobacco leaves [1]
  induction of a hypersensitive response: capable of inducing a hypersensitive response

## SAGSEQQLDQLLLMFIMMMLQQ [P5a]
Tobacco leaves [1]
  induction of a hypersensitive response: capable of inducing a hypersensitive response

## SEEEEQLDOLLLAFIAAALQQ (SEEEEQLDQLLLAFIAAALQQ; P5-25)
Tobacco leaves [1]
  induction of a hypersensitive response: does not

## SEEQLELLLAFIAAALQQEE [P5-21]
Tobacco leaves [1]
  induction of a hypersensitive response: capable of inducing a hypersensitive response

B1: Fresno-P5-21: Red fluorescent protein Fresno fused at C-terminus to harpin peptide P5-21 and 6×His tag, SEQ ID NO: 13 (protein)
chain: MNSLIKENMHMKLYMEGTVNNHHFKCTSEGEGKPYEGTQTMRIKVVEGGPLPFAFDILATSFMYGSRTFIKYPKGIPDFFKQSFPEGFTWERVTRYEDGGVVTATQDTSLEDGCLVYHVQVRGVNFPSNGPVMQKKTLGWEPNTEMLYPADGGLEGRSDMALKLVGGGHLSCSFVTTYRSKKTVGNIKMPGIHAVDHRLVRIKEADKETYVEQHEVAVAKFAGLGGGMDELYKSEEQLELLLAFIAAALQQEESRHHHHHH
Tobacco leaves [2]; 1× concentration (about 100 ug/ml protein)
  hypersensitive response (lesions typical of HR): caused lesions
Tobacco leaves [2]; 2× dilution
  hypersensitive response (lesions typical of HR): caused lesions
[3]
  solubility of recombinant protein (colour of lysate supernatant): soluble
